Reference: patent US20260217701A1, “SELECTIVE BET INHIBITORS AND USES THEREOF” (Tay Therapeutics Limited, priority 2022, published 2026)
Several values for one entry are separate records, joined by “and”; a condition that tells them apart may be missing. Equal entries are not always repeated.

System: collagen-induced arthritis
Assay: Collagen-induced arthritis (CIA) model: clinical scores and paw volume
Type: in vivo, Lewis rats
Conditions: for Overall Clinical Score: individual animals 1-8; for Animal paw volume percent change (%): individual animals
[1] = Day 12, CIA + Compound A 10 mg/kg
[2] = Day 13, L paw, group 5 CIA + Compound A 1 mg/kg
[3] = Day 13, L paw, group 6 CIA + Compound A 3 mg/kg
[4] = Day 13, L paw, group 7 CIA + Compound A 10 mg/kg
[5] = Day 13, R paw, group 5 CIA + Compound A 1 mg/kg
[6] = Day 13, R paw, group 6 CIA + Compound A 3 mg/kg
[7] = Day 13, R paw, group 7 CIA + Compound A 10 mg/kg
[8] = Day 13, CIA + Compound A 1 mg/kg
[9] = Day 13, CIA + Compound A 3 mg/kg
[10] = Day 13, CIA + Compound A 10 mg/kg
[11] = Day 14, L paw, group 5 CIA + Compound A 1 mg/kg
[12] = Day 14, L paw, group 6 CIA + Compound A 3 mg/kg
[13] = Day 14, L paw, group 7 CIA + Compound A 10 mg/kg
[14] = Day 14, R paw, group 5 CIA + Compound A 1 mg/kg
[15] = Day 14, R paw, group 6 CIA + Compound A 3 mg/kg
[16] = Day 14, R paw, group 7 CIA + Compound A 10 mg/kg
[17] = Day 14, CIA + Compound A 1 mg/kg
[18] = Day 14, CIA + Compound A 3 mg/kg
[19] = Day 14, CIA + Compound A 10 mg/kg
[20] = Day 15, L paw, group 5 CIA + Compound A 1 mg/kg
[21] = Day 15, L paw, group 6 CIA + Compound A 3 mg/kg
[22] = Day 15, L paw, group 7 CIA + Compound A 10 mg/kg
[23] = Day 15, R paw, group 5 CIA + Compound A 1 mg/kg
[24] = Day 15, R paw, group 6 CIA + Compound A 3 mg/kg
[25] = Day 15, R paw, group 7 CIA + Compound A 10 mg/kg
[26] = Day 15, CIA + Compound A 1 mg/kg
[27] = Day 15, CIA + Compound A 3 mg/kg

`Cn1cc(-c2ccccc2)c(-c2cn(C)c(=O)c3[nH]c(-c4cnn(C(F)(F)F)c4)cc23)cc1=O` [Compound A, 6-methyl-4-(1-methyl-2-oxo-5-phenyl-1,2-dihydropyridin-4-yl)-2-(1-(trifluoromethyl)-1H-pyrazol-4-yl)-1,6-dihydro-7H-pyrrolo[2,3-c]pyridin-7-one] was tested. Which “Average detailed clinical score, left forelimb” value [1] did it give?
The value was 0.00.

What about the “Average detailed clinical score, left hind limb” value [1] of the same molecule?
The value was 0.00.

What about the “Average detailed clinical score, right forelimb” value [1] of the same molecule?
The value was 0.00.

And the “Average detailed clinical score, right hind limb” value [1]?
The value was 0.13.

What about the “Average detailed clinical score, score” value [1] of the same molecule?
The value was 0.13.

And the “Average overall clinical score” value [1]?
Its value is 0.

And the “Average animal paw volume” value [2]?
The value was 1.42 mL.

What about the “Average animal paw volume percent change (%)” value [2] of the same molecule?
The value was 7.45%.

And the “Average animal paw volume” value [3]?
Its value is 1.40 mL.

What about the “Average animal paw volume percent change (%)” value [3] of the same molecule?
The value was 6.55%.

What about the “Average animal paw volume” value [4] of the same molecule?
Its value is 1.41 mL.

And the “Average animal paw volume percent change (%)” value [4]?
Its value is 7.21%.

And the “Average animal paw volume” value [5]?
The value was 1.43 mL.

What about the “Average animal paw volume percent change (%)” value [5] of the same molecule?
The value was 7.62%.

What about the “Average animal paw volume” value [6] of the same molecule?
Its value is 1.40 mL.

What about the “Average animal paw volume percent change (%)” value [6] of the same molecule?
Its value is 6.26%.

And the “Average animal paw volume” value [7]?
The value was 1.41 mL.

What about the “Average animal paw volume percent change (%)” value [7] of the same molecule?
The value was 7.41%.

And the “Average detailed clinical score, left forelimb” value [8]?
Its value is 0.

What about the “Average detailed clinical score, left hind limb” value [8] of the same molecule?
The value was 0.

What about the “Average detailed clinical score, right forelimb” value [8] of the same molecule?
Its value is 0.

What about the “Average detailed clinical score, right hind limb” value [8] of the same molecule?
The value was 0.

What about the “Average detailed clinical score, score” value [8] of the same molecule?
Its value is 0.

And the “Average overall clinical score” value [8]?
The value was 0.

What about the “Overall Clinical Score” value (Day 13, CIA + Compound A 1 mg/kg, 1 mg/kg) of the same molecule?
Its value is 0 (6×) and 2 and 1.

And the “Average detailed clinical score, left forelimb” value [9]?
The value was 0.

What about the “Average detailed clinical score, left hind limb” value [9] of the same molecule?
Its value is 0.

And the “Average detailed clinical score, right forelimb” value [9]?
The value was 0.

What about the “Average detailed clinical score, right hind limb” value [9] of the same molecule?
The value was 0.

And the “Average detailed clinical score, score” value [9]?
Its value is 0.

And the “Average overall clinical score” value [9]?
Its value is 0.

What about the “Overall Clinical Score” value (Day 13, CIA + Compound A 3 mg/kg, 3 mg/kg) of the same molecule?
The value was 0.

What about the “Average detailed clinical score, left forelimb” value [10] of the same molecule?
The value was 0.

What about the “Average detailed clinical score, left hind limb” value [10] of the same molecule?
Its value is 0.125.

What about the “Average detailed clinical score, right forelimb” value [10] of the same molecule?
The value was 0.125.

And the “Average detailed clinical score, right hind limb” value [10]?
The value was 0.25.

And the “Average detailed clinical score, score” value [10]?
Its value is 0.5.

What about the “Average overall clinical score” value [10] of the same molecule?
Its value is 1.

And the “Average animal paw volume” value [11]?
The value was 1.53 mL.

And the “Average animal paw volume percent change (%)” value [11]?
Its value is 15.36%.

What about the “Average animal paw volume” value [12] of the same molecule?
Its value is 1.44 mL.

And the “Average animal paw volume percent change (%)” value [12]?
The value was 9.64%.

And the “Average animal paw volume” value [13]?
Its value is 1.44 mL.

What about the “Average animal paw volume percent change (%)” value [13] of the same molecule?
Its value is 9.68%.

And the “Average animal paw volume” value [14]?
The value was 1.49 mL.

What about the “Average animal paw volume percent change (%)” value [14] of the same molecule?
Its value is 11.73%.

What about the “Average animal paw volume” value [15] of the same molecule?
Its value is 1.45 mL.

What about the “Average animal paw volume percent change (%)” value [15] of the same molecule?
Its value is 10.16%.

And the “Average animal paw volume” value [16]?
Its value is 1.44 mL.

And the “Average animal paw volume percent change (%)” value [16]?
The value was 9.90%.

What about the “Average detailed clinical score, left forelimb” value [17] of the same molecule?
Its value is 0.

And the “Average detailed clinical score, left hind limb” value [17]?
Its value is 1.

What about the “Average detailed clinical score, right forelimb” value [17] of the same molecule?
The value was 0.

And the “Average detailed clinical score, right hind limb” value [17]?
Its value is 0.

And the “Average detailed clinical score, score” value [17]?
The value was 1.

And the “Average overall clinical score” value [17]?
Its value is 1.

What about the “Overall Clinical Score” value (Day 14, CIA + Compound A 1 mg/kg, 1 mg/kg) of the same molecule?
Its value is 0 (3×) and 2 (2×) and 1 (3×).

What about the “Average detailed clinical score, left forelimb” value [18] of the same molecule?
Its value is 0.

And the “Average detailed clinical score, left hind limb” value [18]?
The value was 0.

And the “Average detailed clinical score, right forelimb” value [18]?
The value was 0.

And the “Average detailed clinical score, right hind limb” value [18]?
The value was 0.

What about the “Average detailed clinical score, score” value [18] of the same molecule?
Its value is 1.

What about the “Average overall clinical score” value [18] of the same molecule?
Its value is 1.

And the “Overall Clinical Score” value (Day 14, CIA + Compound A 3 mg/kg, 3 mg/kg)?
The value was 0.

What about the “Average detailed clinical score, left forelimb” value [19] of the same molecule?
The value was 0.

What about the “Average detailed clinical score, left hind limb” value [19] of the same molecule?
The value was 0.25.

And the “Average detailed clinical score, right forelimb” value [19]?
Its value is 0.

And the “Average detailed clinical score, right hind limb” value [19]?
The value was 0.375.

And the “Average detailed clinical score, score” value [19]?
Its value is 0.625.

What about the “Average overall clinical score” value [19] of the same molecule?
Its value is 1.

And the “Average animal paw volume” value [20]?
The value was 1.64 mL.

What about the “Average animal paw volume percent change (%)” value [20] of the same molecule?
The value was 24.11%.

And the “Average animal paw volume” value [21]?
The value was 1.54 mL.

What about the “Average animal paw volume percent change (%)” value [21] of the same molecule?
The value was 16.70%.

What about the “Average animal paw volume” value [22] of the same molecule?
The value was 1.54 mL.

And the “Average animal paw volume percent change (%)” value [22]?
Its value is 16.95%.

What about the “Animal paw volume percent change (%)” value (Day 15, L paw, group 5 CIA + Compound A 1 mg/kg, 1 mg/kg) of the same molecule?
Its value is 10.73% and 42.25% and 30.26% and 23.40% and 10.86% and 24.91% and 44.53%.

And the “Animal paw volume percent change (%)” value (Day 15, L paw, group 6 CIA + Compound A 3 mg/kg, 3 mg/kg)?
Its value is 12.93% and 23.35% and 12.17% and 8.79% and 18.01% and 25.47%.

What about the “Average animal paw volume” value [23] of the same molecule?
The value was 1.58 mL.

And the “Average animal paw volume percent change (%)” value [23]?
Its value is 19.02%.

And the “Average animal paw volume” value [24]?
Its value is 1.51 mL.

What about the “Average animal paw volume percent change (%)” value [24] of the same molecule?
The value was 14.88%.

And the “Average animal paw volume” value [25]?
The value was 1.50 mL.

What about the “Average animal paw volume percent change (%)” value [25] of the same molecule?
Its value is 14.23%.

What about the “Animal paw volume percent change (%)” value (Day 15, R paw, group 5 CIA + Compound A 1 mg/kg, 1 mg/kg) of the same molecule?
Its value is 8.43% and 39.77% and 13.09% and 24.15% and 10.33% and 30.42% and 20.00%.

What about the “Animal paw volume percent change (%)” value (Day 15, R paw, group 6 CIA + Compound A 3 mg/kg, 3 mg/kg) of the same molecule?
The value was 4.53% and 9.73% and 9.81% and 5.20% and 34.75% and 17.23%.

What about the “Average detailed clinical score, left forelimb” value [26] of the same molecule?
Its value is 0.

And the “Average detailed clinical score, left hind limb” value [26]?
The value was 1.

And the “Average detailed clinical score, right forelimb” value [26]?
Its value is 0.

And the “Average detailed clinical score, right hind limb” value [26]?
Its value is 1.

And the “Average detailed clinical score, score” value [26]?
The value was 2.

What about the “Average overall clinical score” value [26] of the same molecule?
The value was 2.

What about the “Overall Clinical Score” value (Day 15, CIA + Compound A 1 mg/kg, 1 mg/kg) of the same molecule?
Its value is 0 (3×) and 4 and 3 (3×) and 2.

What about the “Average detailed clinical score, left forelimb” value [27] of the same molecule?
Its value is 0.

And the “Average detailed clinical score, left hind limb” value [27]?
Its value is 1.

What about the “Average detailed clinical score, right forelimb” value [27] of the same molecule?
Its value is 0.

What about the “Average detailed clinical score, right hind limb” value [27] of the same molecule?
The value was 1.
